Reference: patent US6573218B1, “Fused-benzene derivatives useful as herbicides” (Ishihara Sangyo Kaisha, Ltd., priority 1998, dated 2003)

Assays:
Assay type in all cases: in vivo
[1] = test system: barnyardgrass (Echinochloa crus-galli, ECHCG); assay: Pre-emerge greenhouse herbicide test; conditions: 14 days after application, scale 0-100 (0 no damage, 100 complete death)
From the text: (§1) A standard greenhouse herbicide activity screening system was used to evaluate the herbicidal efficacy and crop safety of these test compounds. Seven broadleaf weed species including redroot pigweed (Amaranthus retroflexus, AMARE), velvetleaf (Abutilon theophrasti, ABUTH), sicklepod (Cassia obtusifolia, CASOB), ivyleaf morningglory (Ipomoea hederacea, IPOHE), lambsquarters (Chenopodium album, CHEAL), common ragweed (Ambrosia artemisiifolia L., AMBEL), and cocklebur (Xanthium strumarium, XANST) were used as test species. Four grass weed species including green foxtail (Setaria viridis, SETVI), barnyardgrass (Echinochloa crus-galli, ECHCG), johnsongrass (Sorghum halepense, SORHA), and large crabgrass (Digitaria sanguinalis, DIGSA) were also used. In addition, three crop species, field corn (Zea mays L., var. Dekalb 527, CORN), soybean (Glycine max L., var. Pella 86, SOY), and upland rice (Ory0a sp., var.Tebonnet, RICE) were included.
(§2) All plants were grown in 10 cm square plastic pots which were filled with a sandy loam soil mix. For pre-emerge tests, seeds were planted one day prior to application of the test compounds. For post-emerge tests, seeds were planted 8-21 days prior to the test to allow emergence and good foliage development prior to application of the test substances. At the time of the post-emerge application, plants of all species were usually at the 2-3 leaf stage of development.
(§3) All test compounds were dissolved in acetone and applied to the test units in a volume of 187 l/ha. Test materials were applied at rates ranging from 15 g ai/ha to 1000 g ai/ha using a track sprayer equipped with a TJ8001E even flow flat fan spray nozzle. Plants were arranged on a shelf so that the top of the canopy (post-emerge) or top of the soil surface (pre-emerge) was 40-45 cm below the nozzle. Pressurized air was used to force the test solution through the nozzle as it was mechanically advanced over the top of all test plants/pots. This application simulates a typical commercial field herbicide application.
(§4) In the post-emerge test, a commercial non-ionic surfactant was also included (0.25% v/v) to enhance wetting of the leaf surfaces of target plants. Immediately after application, test units of the pre-emerge applications were watered at the soil surface to incorporate the test materials.
(§5) At 14 days after application of the test materials, phytotoxicity ratings were recorded. A rating scale of 0-100 was used as previously described in Research Methods in Weed Science, 2nd edition, B. Truelove, Ed., Southern Weed Science Society, Auburn University, Auburn, Ala., 1977. Briefly, “0” corresponds to no damage and “100” corresponds to complete death of all plants in the test unit. This scale was used both to determine efficacy against weed species and damage to crop species. Herbicide activity data for various compounds of this invention, which are shown by compound No. in Tables 1-14, are shown in Tables 16 and 17.

[2] = test system: green foxtail (Setaria viridis, SETVI); assay: Pre-emerge greenhouse herbicide test; conditions: 14 days after application, scale 0-100 (0 no damage, 100 complete death)
From the text: as §1, §2, §3, §4, §5

[3] = test system: ivyleaf morningglory (Ipomoea hederacea, IPOHE); assay: Pre-emerge greenhouse herbicide test; conditions: 14 days after application, scale 0-100 (0 no damage, 100 complete death)
From the text: as §1, §2, §3, §4, §5

[4] = test system: johnsongrass (Sorghum halepense, SORHA); assay: Pre-emerge greenhouse herbicide test; conditions: 14 days after application, scale 0-100 (0 no damage, 100 complete death)
From the text: as §1, §2, §3, §4, §5

[5] = test system: lambsquarters (Chenopodium album, CHEAL); assay: Pre-emerge greenhouse herbicide test; conditions: 14 days after application, scale 0-100 (0 no damage, 100 complete death)
From the text: as §1, §2, §3, §4, §5

[6] = test system: large crabgrass (Digitaria sanguinalis, DIGSA); assay: Pre-emerge greenhouse herbicide test; conditions: 14 days after application, scale 0-100 (0 no damage, 100 complete death)
From the text: as §1, §2, §3, §4, §5

[7] = test system: redroot pigweed (Amaranthus retroflexus, AMARE); assay: Pre-emerge greenhouse herbicide test; conditions: 14 days after application, scale 0-100 (0 no damage, 100 complete death)
From the text: as §1, §2, §3, §4, §5

[8] = test system: sicklepod (Cassia obtusifolia, CASOB); assay: Pre-emerge greenhouse herbicide test; conditions: 14 days after application, scale 0-100 (0 no damage, 100 complete death)
From the text: as §1, §2, §3, §4, §5

[9] = test system: velvetleaf (Abutilon theophrasti, ABUTH); assay: Pre-emerge greenhouse herbicide test; conditions: 14 days after application, scale 0-100 (0 no damage, 100 complete death)
From the text: as §1, §2, §3, §4, §5

[10] = test system: field corn (Zea mays L., var. Dekalb 527, CORN); assay: Pre-emerge greenhouse crop damage test; conditions: var. Dekalb 527, field corn (Zea mays L.), in vivo, 14 days
From the text: as §1, §2, §3, §4, §5

[11] = test system: soybean (Glycine max L., var. Pella 86, SOY); assay: Pre-emerge greenhouse crop damage test; conditions: var. Pella 86, soybean (Glycine max L.), in vivo, 14 days
From the text: as §1, §2, §3, §4, §5

[12] = test system: upland rice (Ory0a sp., var.Tebonnet, RICE); assay: Pre-emerge greenhouse crop damage test; conditions: var. Tebonnet, upland rice (Ory0a sp.), in vivo, 14 days
From the text: as §1, §2, §3, §4, §5

[13] = test system: barnyardgrass (Echinochloa crus-galli, ECHCG); assay: Post-emerge greenhouse herbicide test; conditions: 14 days after application
From the text: as §1, §2, §3, §4, §5

[14] = test system: green foxtail (Setaria viridis, SETVI); assay: Post-emerge greenhouse herbicide test; conditions: 14 days after application
From the text: as §1, §2, §3, §4, §5

[15] = test system: ivyleaf morningglory (Ipomoea hederacea, IPOHE); assay: Post-emerge greenhouse herbicide test; conditions: 14 days after application
From the text: as §1, §2, §3, §4, §5

[16] = test system: johnsongrass (Sorghum halepense, SORHA); assay: Post-emerge greenhouse herbicide test; conditions: 14 days after application
From the text: as §1, §2, §3, §4, §5

[17] = test system: lambsquarters (Chenopodium album, CHEAL); assay: Post-emerge greenhouse herbicide test; conditions: 14 days after application
From the text: as §1, §2, §3, §4, §5

[18] = test system: large crabgrass (Digitaria sanguinalis, DIGSA); assay: Post-emerge greenhouse herbicide test; conditions: 14 days after application
From the text: as §1, §2, §3, §4, §5

[19] = test system: redroot pigweed (Amaranthus retroflexus, AMARE); assay: Post-emerge greenhouse herbicide test; conditions: 14 days after application
From the text: as §1, §2, §3, §4, §5

[20] = test system: sicklepod (Cassia obtusifolia, CASOB); assay: Post-emerge greenhouse herbicide test; conditions: 14 days after application
From the text: as §1, §2, §3, §4, §5

[21] = test system: velvetleaf (Abutilon theophrasti, ABUTH); assay: Post-emerge greenhouse herbicide test; conditions: 14 days after application
From the text: as §1, §2, §3, §4, §5

[22] = test system: field corn (Zea mays L., var. Dekalb 527, CORN); assay: Post-emerge greenhouse crop damage test; conditions: var. Dekalb 527, field corn (Zea mays L.), in vivo, 14 days
From the text: as §1, §2, §3, §4, §5

[23] = test system: soybean (Glycine max L., var. Pella 86, SOY); assay: Post-emerge greenhouse crop damage test; conditions: var. Pella 86, soybean (Glycine max L.), in vivo, 14 days
From the text: as §1, §2, §3, §4, §5

[24] = test system: upland rice (Ory0a sp., var.Tebonnet, RICE); assay: Post-emerge greenhouse crop damage test; conditions: var. Tebonnet, upland rice (Ory0a sp.), in vivo, 14 days
From the text: as §1, §2, §3, §4, §5

Cn1c(C(F)(F)F)cc(=O)n(-c2c(F)cc(Cl)c3c2NCCO3)c1=O [Compound 2-1, 3-(8-Chloro-6-fluoro-3,4-dihydro-2H-1,4-benzoxazin-5-yl)-1-methyl-6-trifluoromethyl-2,4(1H,3H)-pyrimidindione]
Pre-emerge Herbicidal Activity ECHCG (phytotoxicity rating) ([1]; 125 g ai/ha): 50 | Pre-emerge Herbicidal Activity SETVI (phytotoxicity rating) ([2]; 125 g ai/ha): 100 | Pre-emerge Herbicidal Activity IPOHE (phytotoxicity rating) ([3]; 125 g ai/ha): 50 | Pre-emerge Herbicidal Activity SORHA (phytotoxicity rating) ([4]; 125 g ai/ha): 95 | Pre-emerge Herbicidal Activity CHEAL (phytotoxicity rating) ([5]; 125 g ai/ha): 100 | Pre-emerge Herbicidal Activity DIGSA (phytotoxicity rating) ([6]; 125 g ai/ha): 100 | Pre-emerge Herbicidal Activity AMARE (phytotoxicity rating) ([7]; 125 g ai/ha): 100 | Pre-emerge Herbicidal Activity CASOB (phytotoxicity rating) ([8]; 125 g ai/ha): 40 | Pre-emerge Herbicidal Activity ABUTH (phytotoxicity rating) ([9]; 125 g ai/ha): 100 | Pre-emerge Herbicidal Activity CORN (crop damage rating) [10]: 20 | Pre-emerge Herbicidal Activity SOY (crop damage rating) [11]: 50 | Pre-emerge Herbicidal Activity RICE (crop damage rating) [12]: 70 | Post-emerge Herbicidal Activity ECHCG (phytotoxicity rating 0-100) ([13]; 125 g ai/ha): 10 | Post-emerge Herbicidal Activity SETVI (phytotoxicity rating 0-100) ([14]; 125 g ai/ha): 50 | Post-emerge Herbicidal Activity IPOHE (phytotoxicity rating 0-100) ([15]; 125 g ai/ha): 100 | Post-emerge Herbicidal Activity SORHA (phytotoxicity rating 0-100) ([16]; 125 g ai/ha): 0 | Post-emerge Herbicidal Activity CHEAL (phytotoxicity rating 0-100) ([17]; 125 g ai/ha): 100 | Post-emerge Herbicidal Activity DIGSA (phytotoxicity rating 0-100) ([18]; 125 g ai/ha): 0 | Post-emerge Herbicidal Activity AMARE (phytotoxicity rating 0-100) ([19]; 125 g ai/ha): 90 | Post-emerge Herbicidal Activity CASOB (phytotoxicity rating 0-100) ([20]; 125 g ai/ha): 80 | Post-emerge Herbicidal Activity ABUTH (phytotoxicity rating 0-100) ([21]; 125 g ai/ha): 100 | Post-emerge crop damage CORN (phytotoxicity rating 0-100) [22]: 20 | Post-emerge crop damage SOY (phytotoxicity rating 0-100) [23]: 90 | Post-emerge crop damage RICE (phytotoxicity rating 0-100) [24]: 40

CC1Oc2c(Cl)cc(F)c(-n3c(=O)cc(C(F)(F)F)n(C)c3=O)c2NC1=O (stereo not drawn) [Compound 4-3, 3-(8-Chloro-6-fluoro-2-methyl-2H-1,4-benzoxazin-3-one-5-yl)-1-methyl-6-trifluoromethyl-2,4(1H,3H)-pyrimidindione]
Pre-emerge Herbicidal Activity ECHCG (phytotoxicity rating) ([1]; 250 g ai/ha): 99 | Pre-emerge Herbicidal Activity SETVI (phytotoxicity rating) ([2]; 250 g ai/ha): 100 | Pre-emerge Herbicidal Activity IPOHE (phytotoxicity rating) ([3]; 250 g ai/ha): 100 | Pre-emerge Herbicidal Activity SORHA (phytotoxicity rating) ([4]; 250 g ai/ha): 100 | Pre-emerge Herbicidal Activity CHEAL (phytotoxicity rating) ([5]; 250 g ai/ha): 100 | Pre-emerge Herbicidal Activity DIGSA (phytotoxicity rating) ([6]; 250 g ai/ha): 100 | Pre-emerge Herbicidal Activity AMARE (phytotoxicity rating) ([7]; 250 g ai/ha): 100 | Pre-emerge Herbicidal Activity CASOB (phytotoxicity rating) ([8]; 250 g ai/ha): 100 | Pre-emerge Herbicidal Activity ABUTH (phytotoxicity rating) ([9]; 250 g ai/ha): 100 | Pre-emerge Herbicidal Activity CORN (crop damage rating) [10]: 99 | Pre-emerge Herbicidal Activity SOY (crop damage rating) [11]: 100 | Pre-emerge Herbicidal Activity RICE (crop damage rating) [12]: 99 | Post-emerge Herbicidal Activity ECHCG (phytotoxicity rating 0-100) ([13]; 250 g ai/ha): 80 | Post-emerge Herbicidal Activity SETVI (phytotoxicity rating 0-100) ([14]; 250 g ai/ha): 50 | Post-emerge Herbicidal Activity IPOHE (phytotoxicity rating 0-100) ([15]; 250 g ai/ha): 100 | Post-emerge Herbicidal Activity SORHA (phytotoxicity rating 0-100) ([16]; 250 g ai/ha): 90 | Post-emerge Herbicidal Activity CHEAL (phytotoxicity rating 0-100) ([17]; 250 g ai/ha): 100 | Post-emerge Herbicidal Activity DIGSA (phytotoxicity rating 0-100) ([18]; 250 g ai/ha): 70 | Post-emerge Herbicidal Activity AMARE (phytotoxicity rating 0-100) ([19]; 250 g ai/ha): 100 | Post-emerge Herbicidal Activity CASOB (phytotoxicity rating 0-100) ([20]; 250 g ai/ha): 95 | Post-emerge Herbicidal Activity ABUTH (phytotoxicity rating 0-100) ([21]; 250 g ai/ha): 100 | Post-emerge crop damage CORN (phytotoxicity rating 0-100) [22]: 100 | Post-emerge crop damage SOY (phytotoxicity rating 0-100) [23]: 100 | Post-emerge crop damage RICE (phytotoxicity rating 0-100) [24]: 80
